Experimental data reported in a melting point compilation (Tetko et al.; mined from patent text by program, amines drawn as free bases though some values may be those of a salt).

Row | Compound | melting point [°C]
1 | CCOC(=O)c1cc(-n2c(=O)cc(C)n(C)c2=O)ccc1Cl | 120 to 122
2 | CC(C)(C)n1ncc(S)c(Cl)c1=O | 112 to 113
3 | CC(=O)SC(C(=O)c1cccc(F)c1)C(C)C(=O)N1CCC[C@H]1C(=O)O (some centres not stated) | 158 to 159
4 | CC(=O)NCC1CN(c2ccc(N3CCC(O)(C(F)(F)F)C(C)C3)c(F)c2)C(=O)O1 (configuration not stated) | 144 to 146
5 | COc1ccc(N2CC(=O)NC(=O)N2)cc1C | 69 to 71
6 | CC(C)(C)c1cc(CS[C@@H]2CCCC[C@H]2SCc2cc(C(C)(C)C)cc(C(C)(C)C)c2O)c(O)c(C(C)(C)C)c1 (relative stereo) | 104 to 106
7 | Nc1nc2c(ncn2COCC=O)c(=O)[nH]1 | 350
8 | C=CCNc1nc(NCCCCCCCCC)c2scc(C)c2n1 | 65 to 66
9 | CC(=O)OCC1OC(n2cc(C3=C(c4c[nH]c5ccccc45)C(=O)N(C)C3=O)c3cccnc32)C(OC(C)=O)C(OC(C)=O)C1OC(C)=O (configuration not stated) | 119 to 121
10 | Cn1c(Cl)c(C=O)c2cccc(Cl)c21 | 185 to 187
11 | CC(C)Sc1sc(C(=O)N2CCCC2)c2c1-c1oncc1C(C)(C)C2 | 88 to 91
12 | COc1ccc(CN2CCSC2=O)cc1 | 84 to 86
13 | CC(C)(C)NC(=NC#N)Nc1cc(F)cc(Cl)c1 | 156 to 157
14 | CC(C)(C)OC(=O)NCC(Cl)c1ccco1 (configuration not stated) | 75 to 77
15 | CCCCN(Cc1ccc(C#N)cc1Cl)c1c(NC(C)(C)C)c(=O)c1=O | 133 to 134
16 | CN1Cc2cc3ccc4c(c3c(-c3ccc5c(c3)OCO5)c2C1=O)OCO4 | 242 to 244
17 | Cc1c(C)c(CC(C)(C)C#N)c(C)c(C)c1CC(C)(C)C#N | 187 to 190
18 | CC(C)(C)OC(=O)NCCCCCCC(=O)Nc1ccc(-n2nc(C(F)(F)F)cc2C(F)(F)F)cc1 | 86 to 88
19 | COC(=O)c1ccc(Cn2nc(Br)c3ccc(C(=O)NCC4CCCC4)cc32)c(OC)c1 | 161 to 162
20 | CC(=O)C(=[N+]=[N-])S(=O)(=O)C(C)C | 53 to 55
21 | COc1ccc(F)c(C(=O)O)c1 | 144 to 146
22 | CN(C=O)CNC(=O)c1cc(Cl)nc(Cl)c1 | 150 to 155
23 | COC(=O)C1=C(CF)NC(C)=C(C(=O)OC(C)C)C1c1cccc(OC)c1OC (configuration not stated) | 89 to 91

Row | Compound | melting point [°C]
24 | Cc1c(C)c(OCC(=O)N2CCN(c3ccc(N=C(N)c4cccs4)cc3)CC2)c(C)c(C)c1O | 210 to 212
25 | CCCCCCCCCCOc1cc(O)cc(C(=O)OC)c1 | 92 to 94
26 | O=C(O)CCc1cnoc1-c1ccc(Cl)s1 | 138 to 139
27 | COc1ccc2[nH]ccc2c1Cl | 112 to 113
28 | O=C1NCCN1c1ccncc1 | 204 to 207
29 | CCOC(=O)C1CCC(c2ccc(OCC(=O)O)c(Cl)c2Cl)=CC1=O (configuration not stated) | 193 to 195
30 | CC(=O)NC1CCCCC1 | 108 to 109
31 | CO[C@H]1[C@H](N2CCCC2)c2cc(C#N)ccc2OC1(C)C (relative stereo) | 108 to 109
32 | Clc1cnc2c(C(Cl)(Cl)Cl)cc(Cl)cc2c1 | 198
33 | COc1cccc(OC)c1-c1cc(C(=O)NC2(C(=O)O)C3CCCC2CCC3)nn1-c1ccc(C(=O)N(C)CCCN(C)C)cc1C(C)C (configuration not stated) | 160
34 | Nc1cc(O)nc(SCc2c(F)cccc2F)n1 | 245 to 246
35 | O=[N+]([O-])c1ccc(N2CCN(Cc3ccccc3)CC2)cc1 | 115 to 118
36 | NCCN1CCC(NC(=O)c2cc(Cl)c(N)c3c2OCCC3)CC1 | 130
37 | CCCCCCCNC(=O)Nc1ccc(N(C)C)cc1C(=O)NCC1CCN(C(c2ccc(Cl)cc2)c2ccc(Cl)cc2)CC1 | 216
38 | C=C(CCC(C)C1CCC2C3=C(C(=O)CC21C)C1(C)CCC(=O)C(C)C1CC3O)C(C)C(=O)OC (configuration not stated) | 100 to 101
39 | NC(=O)[C@@H]1[C@H](Nc2c(Br)cnc3[nH]c(-c4cccnc4N4CCCC4)nc23)[C@H]2C=C[C@@H]1C2 | 190
40 | CC(C)(C)OC(=O)N1CCn2c(c(C#N)c(Cl)c2C2CC2)C1 | 132 to 134
41 | CCOCCc1ccc(OCCNc2ncnc3oc(C)c(C)c23)c(C)c1 | 92 to 93
42 | CCCCCCCCCCCCCCCCCC(=O)NCC(O)CO (single isomer, unassigned; (+)) | 112 to 114
43 | CC1Cc2ccc(Cl)cc2CN(CCO)C1=O (configuration not stated) | 139 to 140
44 | CC(C)N(C(=O)CN1C(=O)C(Cc2n[nH]c3ccccc23)C(=O)N(c2ccccc2)c2ccccc21)c1ccc(C(F)(F)F)cc1 (configuration not stated) | 145 to 148
45 | O=C1Nc2ccccc2N(C(=O)CN2CCCCC2CN2CCCCC2)c2cscc21 (configuration not stated) | 190 to 195

More lines, now with the values ahead:

Row | melting point [°C] | Compound
46 | 164 to 165 | CC(C)(C)OC(=O)N=C(c1ccc(C(=O)Nc2ccc(C(=O)NCCC(=O)OCc3ccccc3)cc2)cc1)N(C(=O)OC(C)(C)C)C(=O)OC(C)(C)C
47 | 54 to 55 | BrCCCOc1ccc(Oc2ccccc2)cc1
48 | 102 to 103 | N#Cc1cccc(OCc2ccccc2)c1N
49 | 71.5 to 73 | CCOC(=O)CCc1ccc(C(=O)c2ccc(Cl)cc2)n1C
50 | 72 to 75.5 | OCc1ccccc1CCc1ccc(Br)cc1
51 | 225 to 226 | CC(C)n1nc(-c2nc(-c3ccccc3)c(N)nc2-c2ccccc2)ccc1=O
52 | 138 | CC(=O)ON(C(N)=O)C(C)c1cc2ccccc2s1 (configuration not stated)
53 | 142 to 143 | CC(C)(C)c1ccc(CCC(O)CC2CCCC2)cc1NC(=O)CC1c2ccccc2Oc2ccccc21 (configuration not stated)
54 | 122 to 125 | Cc1nc(-c2ccccc2)cc(-c2cccc(C=O)c2)c1C(=O)NCCN1CCOCC1
55 | 216 to 219 | CC(C)c1ccc(-c2ccc(/C=C/C(=O)O)s2)cc1
56 | 208 to 209 | O=C(CC1=C(n2nc(-c3c(-c4ccccc4)nn4ccccc34)ccc2=O)CCCC1)N1CCNCC1
57 | 133 to 135 | CSC(=S)Nc1ccc(OCc2nc3ccccc3s2)cc1C
58 | 184 to 185 | O=[N+]([O-])c1ccc(Br)cc1-c1cc(-c2ccc(Br)cc2)on1
59 | 126 to 128 | COc1cc2c(c(OC)c1)C(Cc1ccc(-c3ccccc3OC)cc1)N(C(=O)OC(C)(C)C)CC2 (configuration not stated)
60 | 240 to 242 | O=[N+]([O-])c1ccc(NN=C(c2ccc(O)cc2O)c2ccc(O)cc2O)c([N+](=O)[O-])c1
61 | 210 to 211 | CC(=O)N1CCN(CCCOc2ccc(NC(=O)c3cc(F)cc(N4CCCCC4)c3)c3ccccc23)CC1
62 | 164 | O=C(O)C1CCCCC1n1nc(-c2c(-c3ccccc3)nn3ccccc23)ccc1=O (configuration not stated)
63 | 105 to 106 | CN(Cc1ccccc1)C(=O)c1ccc2nonc2c1
64 | > 225 | COc1c(C(=O)O)csc1S(=O)(=O)Oc1ccc(-c2c3ccccc3c(Br)c3sc(C)c(C)c23)cc1C1CCCC1
65 | 129 to 131 | Cc1ccc(C=CC(=O)NCCCCN2CCN(C(c3ccccc3)c3ccccc3)CC2)cn1
66 | 182 to 183 | O=C(O)Cc1ccc([N+](=O)[O-])c(C(=O)c2ccc(Cl)cc2)c1
67 | 107 to 109 | CSc1cccc(Oc2ncccc2C(=O)NCc2ccc(C(C)(C)O)cc2)c1
68 | 225 to 227 | COC(=O)C1=C(C)NC2=C(C(=O)CN(Cc3ccccc3)C2)C1c1ccccc1C(F)(F)F (configuration not stated)
69 | 201 to 202 | Cc1oc(-c2ccccc2)nc1COc1cccc(C=CC=Cc2nnn[nH]2)c1
70 | 88 to 90 | ClCCOc1ccc(/C=C/c2nc3ccccc3o2)cc1
71 | 184 to 187 | O=C(O)c1ccccc1C(=O)c1ccc(N2CCOCC2)cc1O

Row | melting point [°C] | Compound
72 | 60 | O=[N+]([O-])c1ccc(OCCCl)cc1
73 | 169 to 171 | N=C(N)c1ccc(C(=O)NCCCCC(=O)NC(CC(=O)O)C(=O)NC(Cc2ccccc2)C(=O)O)cc1 (configuration not stated)
74 | 219 to 221 | NS(=O)(=O)c1cc(C(=O)Nc2ccccc2)ccc1F
75 | 188 to 191 | Cc1ccc(-c2nc(C(F)(F)F)nc(NN)c2-c2ccccc2)cc1
76 | 140 | O=C(NO)[C@H](CNS(=O)(=O)c1ccc(OCc2ccc(F)cc2)cc1)N1CCCCC1
77 | 202 to 204 | CC(C)(C)OC(=O)N1CCC(NC(=O)c2ccc(-n3cc4ccccc4n3)cc2)CC1
78 | > 300 | O=C(NCc1ccc(Cl)cc1)c1n[nH]c2ncc(I)cc2c1=O
79 | 241 to 242 | O=C1c2ccccc2C(=O)N1OCC1OC(n2ccc(=O)[nH]c2=O)CC1O (configuration not stated)
80 | 100 to 102 | COc1cc([N+](=O)[O-])c2nccc(C)c2c1OCCCc1ccccc1
81 | 64 to 70 | O=C1CCCC(Sc2ccccc2)=C1C(=O)c1ccc(Cl)c(OCCn2cnnn2)c1Cl
82 | 191 to 192 | O=C(Cc1csc(Nc2ccccc2)n1)NC1CCN(Cc2ccc(Cl)c(Cl)c2)CC1
83 | 107 to 108 | O=S(=O)(NCCc1ccc(C(O)CCCO)cc1)c1ccc(Br)cc1 (configuration not stated)
84 | 100 to 102 | CC(=O)NCC1(C)OCCc2c1[nH]c1ccccc21 (configuration not stated)
85 | 90 to 92 | Cc1ccc(S(=O)(=O)OCC2Cc3cccc(-c4ccsc4)c3O2)cc1 (configuration not stated)
86 | 196 to 198 | CC(C)(C)c1cc(-c2ccc(NC(=O)c3ccccc3C(=O)O)cc2)cc(C(C)(C)C)c1O
87 | 116 to 118 | CN1CCC(c2nn(-c3ccc(N)cc3)c3ccccc23)CC1
88 | 153 to 155 | O=C(c1cc(Br)ccc1[N+](=O)[O-])C(Br)C(Br)c1cccc(Br)c1 (configuration not stated)
89 | 145 to 146 | Oc1c(-c2ccccc2)cc(Cn2c(=S)sc3ccccc32)cc1-c1ccccc1
90 | 137 to 139 | CC(C)CCOc1c(-c2ccc(S(N)(=O)=O)cc2)cnn(-c2cccc(Cl)c2)c1=O
91 | 114 to 116 | CC1(CC(=O)O)CCc2ccccc2C1=O (configuration not stated)
92 | 76 to 77 | CC(C)(COc1ccc(Cl)cc1)C(=O)COc1ccc(Cl)cc1
93 | 101 to 102 | CCCCOc1ccc(CNC(=O)c2ccccc2[N+](=O)[O-])cc1
94 | 171 to 172 | COc1ccc2cc(S(N)(=O)=O)[nH]c2c1
95 | 105 to 106 | CN(C)C(=O)C1(CCCN2CCCCC2)CC=CCC1c1ccccc1 (configuration not stated)
96 | 360 to 364 | NC(=O)c1nc(-c2cccc(O)c2)nc2c1[nH]c(=O)n2-c1ccccc1Cl
97 | 145 to 147 | C=Cc1ccc(S(=O)(=O)NS(=O)(=O)c2ccccc2)cc1
